Calls of active or inactive are those of the source. The calls are words filed in the database; no cut-off is given here.
Experiments:
[1] = Ring stabilizer activity at full-length native sheep brain dynamin 1 assessed as stimulation of GTPase activity in absence of PS liposomes using 200 nM full-length dynamin 1; parameters: species or system Ovis aries
[2] = Inhibition of full-length native sheep brain dynamin 1 assessed as reduction in PS liposomes-induced GTPase activity using 20 nM full-length dynamin 1; parameters: species or system Ovis aries
Dynamin-2 (Homo sapiens) [3] = target: T1, Dynamin-2 (Homo sapiens) (UniProt P50570); test: Inhibition of Dynamin-2 in human lymphoblasts assessed as accumulation of clathrin coated pits at the plasma membrane incubated for 30 mins by electron microscopic analysis
T1 sequence (whole entry): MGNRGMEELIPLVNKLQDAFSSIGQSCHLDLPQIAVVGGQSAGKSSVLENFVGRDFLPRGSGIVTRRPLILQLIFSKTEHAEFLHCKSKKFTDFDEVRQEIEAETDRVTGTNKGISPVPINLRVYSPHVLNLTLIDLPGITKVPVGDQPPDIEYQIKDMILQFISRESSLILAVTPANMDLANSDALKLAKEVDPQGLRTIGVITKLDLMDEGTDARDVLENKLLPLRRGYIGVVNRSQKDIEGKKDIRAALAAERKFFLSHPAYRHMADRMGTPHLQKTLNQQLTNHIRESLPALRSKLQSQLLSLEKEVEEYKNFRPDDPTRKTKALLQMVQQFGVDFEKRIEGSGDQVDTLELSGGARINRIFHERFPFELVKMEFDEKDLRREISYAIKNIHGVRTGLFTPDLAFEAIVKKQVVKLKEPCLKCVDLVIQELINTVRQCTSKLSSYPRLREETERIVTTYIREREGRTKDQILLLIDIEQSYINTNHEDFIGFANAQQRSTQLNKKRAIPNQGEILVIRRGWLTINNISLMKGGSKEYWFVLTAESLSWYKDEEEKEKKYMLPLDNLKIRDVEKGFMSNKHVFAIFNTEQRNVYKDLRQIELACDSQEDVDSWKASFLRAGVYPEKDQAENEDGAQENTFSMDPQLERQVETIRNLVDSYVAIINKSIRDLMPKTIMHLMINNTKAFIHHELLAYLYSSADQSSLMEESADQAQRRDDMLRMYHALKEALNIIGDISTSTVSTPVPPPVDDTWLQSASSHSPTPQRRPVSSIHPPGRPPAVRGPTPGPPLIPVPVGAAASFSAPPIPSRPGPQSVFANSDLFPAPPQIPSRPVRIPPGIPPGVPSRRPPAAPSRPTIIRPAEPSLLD

Ovis aries [4] = species on record: Ovis aries; test: (§1) Ring stabilizer activity at full-length native sheep brain dynamin 1 assessed as stimulation of GTPase activity in absence of PS liposomes
[5] = target: T2, Dynamin-1 (Rattus norvegicus) (UniProt P21575); test: Ring stabilizer activity at Dynamin-1 rat brain synaptosomes depolarised with KCl assessed as formation of trapped endocytic pits encircled by a single electron dense ring incubated for 30 mins by electron microscopic analysis; format: subcellular
T2 sequence (whole entry): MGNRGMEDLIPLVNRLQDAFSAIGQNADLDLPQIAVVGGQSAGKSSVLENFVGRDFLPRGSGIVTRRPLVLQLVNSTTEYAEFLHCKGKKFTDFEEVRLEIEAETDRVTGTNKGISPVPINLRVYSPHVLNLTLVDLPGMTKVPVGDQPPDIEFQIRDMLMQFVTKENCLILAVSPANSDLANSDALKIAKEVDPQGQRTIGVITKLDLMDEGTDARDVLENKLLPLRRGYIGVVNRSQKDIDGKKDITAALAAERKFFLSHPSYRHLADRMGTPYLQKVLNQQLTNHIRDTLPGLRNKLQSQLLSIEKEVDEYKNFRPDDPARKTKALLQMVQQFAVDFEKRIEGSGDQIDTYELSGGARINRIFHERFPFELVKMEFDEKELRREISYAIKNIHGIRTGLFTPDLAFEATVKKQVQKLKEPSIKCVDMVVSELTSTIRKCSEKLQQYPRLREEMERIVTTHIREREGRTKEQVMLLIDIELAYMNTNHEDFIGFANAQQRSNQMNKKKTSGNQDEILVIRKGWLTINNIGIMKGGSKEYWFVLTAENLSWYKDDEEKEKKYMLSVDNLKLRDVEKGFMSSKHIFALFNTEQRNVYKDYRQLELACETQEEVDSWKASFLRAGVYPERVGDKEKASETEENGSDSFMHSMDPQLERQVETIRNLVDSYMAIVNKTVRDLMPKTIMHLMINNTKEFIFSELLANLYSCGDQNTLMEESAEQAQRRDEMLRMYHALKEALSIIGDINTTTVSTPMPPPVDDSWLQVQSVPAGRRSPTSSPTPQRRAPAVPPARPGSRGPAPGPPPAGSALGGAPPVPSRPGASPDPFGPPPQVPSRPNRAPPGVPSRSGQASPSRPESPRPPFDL

Dynamin-1 (Homo sapiens) = target: T3, Dynamin-1 (Homo sapiens) (UniProt Q05193); test: Ring stabilizer activity at recombinant dynamin 1 dimeric GG2 form (unknown origin) assessed as stimulation of GTPase activity using 200 to 1000 nM full-length dynamin
T3 sequence (whole entry): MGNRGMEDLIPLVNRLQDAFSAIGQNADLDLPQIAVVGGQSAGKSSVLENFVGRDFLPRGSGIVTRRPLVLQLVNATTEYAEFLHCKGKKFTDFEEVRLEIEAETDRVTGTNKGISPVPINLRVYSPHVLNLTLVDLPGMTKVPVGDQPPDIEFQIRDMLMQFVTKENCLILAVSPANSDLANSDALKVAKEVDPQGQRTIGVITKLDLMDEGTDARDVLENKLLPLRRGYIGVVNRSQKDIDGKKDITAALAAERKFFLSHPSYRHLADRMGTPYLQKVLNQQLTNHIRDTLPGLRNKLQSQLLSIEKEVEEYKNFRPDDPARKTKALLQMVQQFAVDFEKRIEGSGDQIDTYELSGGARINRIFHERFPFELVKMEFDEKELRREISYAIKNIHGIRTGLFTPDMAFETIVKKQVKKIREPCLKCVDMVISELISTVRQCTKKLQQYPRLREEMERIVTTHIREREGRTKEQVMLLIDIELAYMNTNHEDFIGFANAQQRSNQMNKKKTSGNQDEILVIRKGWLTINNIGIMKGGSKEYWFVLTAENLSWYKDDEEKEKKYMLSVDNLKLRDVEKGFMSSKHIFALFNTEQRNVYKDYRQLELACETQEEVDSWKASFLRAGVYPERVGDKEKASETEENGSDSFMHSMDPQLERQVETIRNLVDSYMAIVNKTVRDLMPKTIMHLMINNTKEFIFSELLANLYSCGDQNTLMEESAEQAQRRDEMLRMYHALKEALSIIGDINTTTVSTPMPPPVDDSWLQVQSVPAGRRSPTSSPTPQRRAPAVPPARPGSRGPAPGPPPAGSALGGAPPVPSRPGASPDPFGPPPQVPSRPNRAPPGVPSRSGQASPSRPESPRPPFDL

Ovis aries [6] = species on record: Ovis aries; test: Induction of ring assembly of full-length native sheep brain dynamin 1 at 100 uM using 520 nM full-length dynamin in presence of 40 to 60 […] by Coomassie staining based SDS gel electrophoresis method
Dynamin-2 (Homo sapiens) [7] = target: T1, Dynamin-2 (Homo sapiens); test: Ring stabilizer activity at Dynamin-2 in human lymphoblasts assessed as accumulation in all cells of clathrin coated pits with highly elongated necks incubated for 30 mins by electron microscopic analysis; format: cell-based
Ovis aries [8] = species on record: Ovis aries; test: Induction of ring assembly of full-length native sheep brain dynamin 1 at 300 uM using 520 nM full-length dynamin in presence of 40 mM NaCl by Coomassie staining based SDS gel electrophoresis method
Dynamin-2 (Homo sapiens) [9] = target: T1, Dynamin-2 (Homo sapiens); test: Ring stabilizer activity at Dynamin-2 in human lymphoblasts assessed as accumulation in all cells of clathrin coated pits with highly elongated necks encircled by electron dense rings incubated for 30 mins by electron microscopic analysis; format: cell-based
Ovis aries [10] = species on record: Ovis aries; test: Ring stabilizer activity at full-length native sheep brain dynamin 1 assessed as stimulation of GTPase activity in absence of PS liposomes and in presence of tween-80
[11] = as §1; parameters: species or system Ovis aries
[12] = Inhibition of full-length native sheep brain dynamin 1 assessed as reduction in PS liposomes-induced GTPase activity in absence of tween-80 using 7 nM full-length dynamin 1; parameters: species or system Ovis aries
[13] = Inhibition of full-length native sheep brain dynamin 1 assessed as reduction in PS liposomes-induced GTPase activity in presence of tween-80 using 7 nM full-length dynamin 1; parameters: species or system Ovis aries
Dynamin-2 (Homo sapiens) [14] = target: Dynamin-2 (Homo sapiens) (UniProt P50570); test: Inhibition of Dynamin-2 in human lymphoblasts incubated for 30 mins by electron microscopic analysis
Ovis aries [15] = species on record: Ovis aries; test: Inhibition of dis-assembly of pre-assembled full-length native sheep brain dynamin 1 pre-incubated in presence of PS liposomes followed compound addition at 5 uM and measured after 10 mins
[16] = Inhibition of full-length native sheep brain dynamin 1 assessed as reduction in PS liposomes-induced GTPase activity; parameters: species or system Ovis aries

## N=c1oc2cc(O)ccc2cc1C(=O)NCCCNC(=O)c1cc2ccc(O)cc2oc1=N
[1]; read-out: EC50
  EC50: 40 µM
[2]
  IC50: 17.3 µM

## O=C(N/N=C/c1ccc(O)c(O)c1)c1cc2ccccc2cc1O
Dynamin-2 (Homo sapiens) [3]
  inhibition: Active
Ovis aries [4]
  Activity: Active

## N#C/C(=C\c1ccc(O)c(O)c1)C(=O)NCCCNC(=O)/C(C#N)=C/c1ccc(O)c(O)c1
[5]
  Activity: Active
Dynamin-1 (Homo sapiens)
  Activity: inactive
Ovis aries [6]
  Activity: Active
Dynamin-2 (Homo sapiens) [7]
  Activity: Active
Ovis aries [8]
  Activity: Active
Dynamin-2 (Homo sapiens) [9]
  Activity: Active
Ovis aries [10]
  Activity: Active

## N=c1oc2c(O)c(O)ccc2cc1C(=O)NCCCNC(=O)c1cc2ccc(O)c(O)c2oc1=N
Dynamin-1 (Homo sapiens)
  Activity: inactive
[11]
  EC50: 1 µM
[2]
  IC50: 0.45 µM

## CCCCCCNC(=O)/C(C#N)=C/c1c(C)n(CCCN(C)C)c2ccccc12
Ovis aries [10]
  Activity: Active

## N=c1oc2cc(O)c(O)cc2cc1C(=O)NCCNC(=O)c1cc2cc(O)c(O)cc2oc1=N
[1]; read-out: EC50
  EC50: 31 µM
[2]
  IC50: 0.33 µM

## O=C(N/N=C/c1cccc(O)c1O)c1cc2ccccc2cc1O
[12]
  IC50: 22.1 µM
[13]; read-out: IC50
  IC50: 19.8 µM

## N=c1oc2c(O)cccc2cc1C(=O)NCCCNC(=O)c1cc2cccc(O)c2oc1=N
[1]
  EC50: Not Active
[2]
  IC50: 36.6 µM

## O=C(N/N=C/c1ccc(O)cc1O)c1cc2ccccc2cc1O
[12]
  IC50: 7.3 µM
[13]; read-out: IC50
  IC50: 200 µM

## O=C(N/N=C/c1ccc(O)c(O)c1O)c1cc2ccccc2cc1O
[12]
  IC50: 3.1 µM
[13]
  IC50: Not Active

## CETRIMIDE
Dynamin-2 (Homo sapiens) [14]
  inhibition: Active

## CCCCCCCCNC(=O)/C(C#N)=C/c1cn(CCCN(C)C)c2ccccc12
Ovis aries [15]
  inhibition: Active
Ovis aries [4]
  Activity: inactive
Ovis aries [10]
  Activity: Active

## COc1cc(/C=N/NC(=O)c2cc3ccccc3cc2O)c(O)cc1O
[12]
  IC50: 3.6 µM
[13]; read-out: IC50
  IC50: 1170 µM

## O=C(N/N=C/c1cc(O)c(O)cc1O)c1cc2ccccc2cc1O
[16]
  IC50: 0.3 µM
Ovis aries [4]
  Activity: Active
[13]; read-out: IC50
  IC50: 2.7 µM
Ovis aries [10]
  Activity: inactive

## CCCCCCCCCCNC(=O)/C(C#N)=C/c1cn(CCN(C)C)c2ccccc12
Ovis aries [10]
  Activity: Active

## O=C(N/N=C/c1cc(O)c(O)c(O)c1)c1cc2ccccc2cc1O
[12]
  IC50: 4.4 µM
[13]; read-out: IC50
  IC50: 468 µM

## CCCCCCCCCCCCCCCCCC[N+](C)(C)C
Ovis aries [10]
  Activity: Active

## CCCCCCCCNC(=O)/C(C#N)=C/c1c(C)n(CCN(C)C)c2ccccc12
Ovis aries [10]
  Activity: Active

## CCCCCCNC(=O)/C(C#N)=C/c1c(C)n(CCN(C)C)c2ccccc12
Ovis aries [10]
  Activity: Active

## O=C(N/N=C/c1cc(O)cc(O)c1)c1cc2ccccc2cc1O
[12]
  IC50: 39.8 µM
[13]
  IC50: Not Active

## N=c1oc2cc(O)c(O)cc2cc1C(=O)NCCCNC(=O)c1cc2cc(O)c(O)cc2oc1=N
[11]
  EC50: 4 µM
[2]
  IC50: 0.26 µM
